Reference: patent US9995734B2, “Human T cell line assay for evaluating the immunologic identity of glatiramer acetate preparations” (Mylan Inc., priority 2013, dated 2018)
Marks after values point to notes of the source that are not given here.

Columns and labels:
Donor 3 GMA T-Cell Lines = experiment: ATP proliferation assay (CellTiter Glo), Donor 3 GMA T-cell lines, incl. reactivity to non-canonical GA peptides; format: cell-based, human; settings: for Proliferation (luminescent ATP assay), Mean: Day 50 of culturing
Donor 3 COP T-Cell Lines = experiment: ATP proliferation assay (CellTiter Glo), Donor 3 COP T-cell lines, incl. reactivity to non-canonical GA peptides; format: cell-based, human; settings: for ATP proliferation assay: Day 14; for Reactivity (proliferation), Mean: Day 54 of culture; for Proliferation (luminescent ATP assay), Mean: Day 66 of culture, 0 μg/mL 1881

Q: What does the source list for glatiramer acetate [COP]?
A: Proliferation (luminescent ATP assay), Mean (Donor 3 GMA T-Cell Lines; T-cell line 165-F10G, 1 μg/mL antigen, No Antigen Value 3752): 6350 RLU; Mean, ATP proliferation assay (Donor 3 GMA T-Cell Lines; T-cell line 165-F10G, 1 μg/mL, Day 40): 8427; Proliferation (luminescent ATP assay), Mean (Donor 3 GMA T-Cell Lines; T-cell line 165-F10G, 3 μg/mL antigen, No Antigen Value 3752): 40495 RLU; Proliferation (luminescent ATP assay), Mean (Donor 3 GMA T-Cell Lines; T-cell line 165-F10G, 10 μg/mL antigen, No Antigen Value 3752): 58726 RLU; Mean, ATP proliferation assay (Donor 3 GMA T-Cell Lines; T-cell line 165-F10G, 10 μg/mL, Day 40): 29986; Proliferation (luminescent ATP assay), Mean (Donor 3 GMA T-Cell Lines; T-cell line 165-F10G, 30 μg/mL antigen, No Antigen Value 3752): 60488 RLU; Mean, ATP proliferation assay (Donor 3 GMA T-Cell Lines; T-cell line 165-F10G, line COP 3 μg/mL, footnote: well contained 10 μg/mL COP, Day 40): 31303**; Proliferation (luminescent ATP assay), Mean (Donor 3 GMA T-Cell Lines; T-cell line 165-H11G, 1 μg/mL antigen, No Antigen Value 1485): 8610 RLU; Mean, ATP proliferation assay (Donor 3 GMA T-Cell Lines; T-cell line 165-H11G, 1 μg/mL, Day 40): 9102; Proliferation (luminescent ATP assay), Mean (Donor 3 GMA T-Cell Lines; T-cell line 165-H11G, 3 μg/mL antigen, No Antigen Value 1485): 37551 RLU; Mean, ATP proliferation assay (Donor 3 GMA T-Cell Lines; T-cell line 165-H11G, 3 μg/mL, Day 40): 15637; Proliferation (luminescent ATP assay), Mean (Donor 3 GMA T-Cell Lines; T-cell line 165-H11G, 10 μg/mL antigen, No Antigen Value 1485): 50044 RLU; Mean, ATP proliferation assay (Donor 3 GMA T-Cell Lines; T-cell line 165-H11G, 10 μg/mL, Day 40): 43786; Proliferation (luminescent ATP assay), Mean (Donor 3 GMA T-Cell Lines; T-cell line 165-H11G, 30 μg/mL antigen, No Antigen Value 1485): 32898 RLU; responsiveness in proliferation assay (Donor 3 GMA T-Cell Lines; all 8 Donor 3 GMA cell lines tested, Day 32, 10 μg/mL (Table 19)): responsive; responsiveness in proliferation assay (Donor 3 GMA T-Cell Lines; eleven of the 12 cell lines (all but F2G), Day 40, 1, 3 or 10 μg/mL (Table 21)): responsive; ratio of proliferation after stimulation with COP to proliferation in response to the APC control (Donor 3 COP T-Cell Lines): greater than 3.0; ATP proliferation assay (Donor 3 COP T-Cell Lines; 165-B6C, 10 μg/mL, control 14966): 77564 RLU; ATP proliferation assay (Donor 3 COP T-Cell Lines; 165-B10C, 10 μg/mL, control 10604): 54779 RLU; ATP proliferation assay (Donor 3 COP T-Cell Lines; 165-C4C, 10 μg/mL, control 23510): 108089 RLU; ATP proliferation assay (Donor 3 COP T-Cell Lines; 165-C7C, 10 μg/mL, control 12707): 63491 RLU; ATP proliferation assay (Donor 3 COP T-Cell Lines; 165-C9C, 10 μg/mL, control 22840): 113199 RLU; response in ATP proliferation assay (Donor 3 COP T-Cell Lines; 165-D2C, 165-C7C, 165-C4C, Day 39, three concentrations (Table 24)): responded comparably; ATP proliferation assay (Donor 3 COP T-Cell Lines; 165-D2C, 10 μg/mL, control 12767): 54895 RLU; ATP proliferation assay (Donor 3 COP T-Cell Lines; 165-D3C, 10 μg/mL, control 18380): 119241 RLU; ATP proliferation assay (Donor 3 COP T-Cell Lines; 165-D11C, 10 μg/mL, control 13302): 82759 RLU; ATP proliferation assay (Donor 3 COP T-Cell Lines; 165-E3C, 10 μg/mL, control 12219): 69893 RLU; ATP proliferation assay (Donor 3 COP T-Cell Lines; 165-E9C, 10 μg/mL, control 22512): 98168 RLU; ATP proliferation assay (Donor 3 COP T-Cell Lines; 165-F3C, 10 μg/mL, control 13157): 93437 RLU; ATP proliferation assay (Donor 3 COP T-Cell Lines; 165-F4C, 10 μg/mL, control 13598): 96289 RLU; ATP proliferation assay (Donor 3 COP T-Cell Lines; 165-F6C, 10 μg/mL, control 23457): 135516 RLU; ATP proliferation assay (Donor 3 COP T-Cell Lines; 165-F9C, 10 μg/mL, control 19736): 145768 RLU; Reactivity (proliferation), Mean (Donor 3 COP T-Cell Lines; T-cell line 165-B6C, 1 μg/mL antigen, No Antigen 2358): 3878 RLU; Reactivity (proliferation), Mean (Donor 3 COP T-Cell Lines; T-cell line 165-B6C, 3 μg/mL antigen, No Antigen 2358): 21455 RLU; Mean, ATP proliferation assay (Donor 3 COP T-Cell Lines; T-cell line 165-B6C, 3 μg/mL, Day 46, after 3 days): 29815 RLU; Reactivity (proliferation), Mean (Donor 3 COP T-Cell Lines; T-cell line 165-B6C, 10 μg/mL antigen, No Antigen 2358): 32197 RLU; Mean, ATP proliferation assay (Donor 3 COP T-Cell Lines; T-cell line 165-B6C, 10 μg/mL, Day 46, after 3 days): 34502 RLU; Reactivity (proliferation), Mean (Donor 3 COP T-Cell Lines; T-cell line 165-B6C, 100 μg/mL antigen, No Antigen 2358): 7969 RLU; Mean, ATP proliferation assay (Donor 3 COP T-Cell Lines; T-cell line 165-B6C, Day 32, 10 μg/mL): 952 RLU; Reactivity (proliferation), Mean (Donor 3 COP T-Cell Lines; T-cell line 165-B10C, 1 μg/mL antigen, No Antigen 2234): 2117 RLU; Reactivity (proliferation), Mean (Donor 3 COP T-Cell Lines; T-cell line 165-B10C, 3 μg/mL antigen, No Antigen 2234): 2519 RLU; Mean, ATP proliferation assay (Donor 3 COP T-Cell Lines; T-cell line 165-B10C, 3 μg/mL, Day 46, after 3 days): 8450 RLU; Reactivity (proliferation), Mean (Donor 3 COP T-Cell Lines; T-cell line 165-B10C, 10 μg/mL antigen, No Antigen 2234): 6701 RLU; Mean, ATP proliferation assay (Donor 3 COP T-Cell Lines; T-cell line 165-B10C, 10 μg/mL, Day 46, after 3 days): 19792 RLU; Reactivity (proliferation), Mean (Donor 3 COP T-Cell Lines; T-cell line 165-B10C, 100 μg/mL antigen, No Antigen 2234): 6215 RLU; Proliferation (luminescent ATP assay), Mean (Donor 3 COP T-Cell Lines; T-cell line 165-C4C, 1 μg/mL antigen): 2357; Mean, ATP proliferation assay (Donor 3 COP T-Cell Lines; T-cell line 165-C4C, 1 μg/mL, Day 39): 11653; Proliferation (luminescent ATP assay), Mean (Donor 3 COP T-Cell Lines; T-cell line 165-C4C, 3 μg/mL antigen): 7913; Mean, ATP proliferation assay (Donor 3 COP T-Cell Lines; T-cell line 165-C4C, 3 μg/mL, Day 39): 28474; Proliferation (luminescent ATP assay), Mean (Donor 3 COP T-Cell Lines; T-cell line 165-C4C, 10 μg/mL antigen): 74558
